Among the test systems are Salmonella typhimurium; Proteus vulgaris; Bacillus subtilis; Streptococcus pyogenes; Pseudomonas aeruginosa; Escherichia coli; Vibrio parahaemolyticus; Lactococcus garvieae; Streptococcus iniae; Vibrio harveyi; Vibrio alginolyticus.
Common to all, as to assay: ≥ marks a high value that may be exact or a test limit, other limits are often not marked, values filed in µg/mL are converted to µM
Test [1] has as its system Micrococcus luteus ATCC 4698.
Test [2] relates to Staphylococcus aureus ATCC 6538.
For test [3], the system named is Escherichia coli DH5alpha.
Test [4] deals with Staphylococcus epidermidis ATCC 12228.
Test [5] deals with Staphylococcus epidermidis.
In test [6] the test system is Staphylococcus aureus BCRC 10780.
For test [7], the system named is Staphylococcus xylosus BCRC 12930.
Test [8] has as its system Klebsiella oxytoca BCRC 13985.
Test [9] deals with Pseudomonas aeruginosa BCRC 10944.
The test system of test [10] is Vibrio anguillarum serotype O1.
In test [11] the test system is Yersinia enterocolitica BCRC 13999.
Test [12] deals with Vibrio parahaemolyticus BCRC 10806.
In test [13] the test system is Listeria monocytogenes BCRC 14845.
In test [14] the test system is Streptococcus equinus BCRC 14729.
The test system of test [15] is Staphylococcus aureus BCRC 10781.
For test [16], the system named is Vibrio alginolyticus BCRC 12829.
Test [17] has as its system Enterobacter cloacae BCRC 10401.
Test [18] concerns Klebsiella aerogenes BCRC 10370.
Test [19] deals with Escherichia coli BCRC 10675.
Test [20] has as its system Staphylococcus aureus CCARM 3543.
For test [21], the system named is Pseudomonas aeruginosa KCTC 1637.
Test [22] deals with Escherichia coli KCTC 1682.
Test [23] deals with Staphylococcus epidermidis KCTC 1917.
Test [24] has as its system Pseudomonas aeruginosa CCARM 2095.
Test [25] deals with Staphylococcus aureus CCARM 3001.
Test [26] concerns Pseudomonas aeruginosa CCARM 2109.
The test system of test [27] is Staphylococcus aureus KCTC 1621.
Test [28] relates to Bacillus subtilis KCTC 3068.
The subject of test [29] is Salmonella typhimurium KCTC 1926.
Test [30] deals with Candida albicans ATCC 64550.

Converted amounts (≈) assume the structure as drawn.

As usually defined, the MIC is the lowest concentration that inhibits growth of the organism. Read a low MIC as greater potency. In the case of `CC(C)C[C@H](NC(=O)[C@H](CC(C)C)NC(=O)[C@H](CCCCN)NC(=O)[C@H](CO)NC(=O)[C@H](CC(C)C)NC(=O)[C@@H](NC(=O)[C@H](CCCCN)NC(=O)[C@H](Cc1ccccc1)NC(=O)[C@H](CC(C)C)NC(=O)[C@@H](NC(=O)CNC(=O)[C@H](CC(C)C)NC(=O)[C@@H](N)Cc1ccccc1)C(C)C)C(C)C)C(=O)O` [FLGVLFKVLSKLL], the MIC in test [1] was 1.35 µM (≈ 2 µg/mL); in [2], 2.03 µM (≈ 3 µg/mL); in test [3], not below 271 µM; in test [4] it was 5.42 µM (≈ 8 µg/mL).
As to `CC(C)C[C@H](NC(=O)[C@H](CCCN=C(N)N)NC(=O)[C@@H]1CCCN1C(=O)[C@H](Cc1cnc[nH]1)NC(=O)[C@@H]1CCCN1C(=O)[C@@H]1CCCN1C(=O)[C@H](CCCN=C(N)N)NC(=O)[C@@H]1CCCN1C(=O)[C@@H](N)CCC(N)=O)C(=O)O` [QPRPPHPRL], the MIC was not below 32 µM against Salmonella typhimurium; not below 64 µM in test [5]; not below 64 µM in the test with Proteus vulgaris; not below 64 µM against Bacillus subtilis; not below 64 µM against Streptococcus pyogenes; 64 µM (≈ 70.2 µg/mL) in the test with Pseudomonas aeruginosa. In the test with Escherichia coli, the MIC is 64 µM (≈ 70.2 µg/mL).
For `CC(C)C[C@H](NC(=O)[C@H](CC(C)C)NC(=O)[C@H](CCCCN)NC(=O)[C@H](CO)NC(=O)[C@H](CC(C)C)NC(=O)[C@H](C)NC(=O)[C@H](CCCCN)NC(=O)[C@@H](NC(=O)[C@@H](NC(=O)[C@H](C)NC(=O)CNC(=O)[C@H](CC(C)C)NC(=O)[C@@H](N)Cc1ccccc1)C(C)C)C(C)C)C(=O)O` [FLGAVVKALSKLL], the MIC was 10.3 µM (≈ 14 µg/mL) in test [1], 19.1 µM (≈ 26 µg/mL) in [2], not below 36.8 µM in test [3] and 29.4 µM (≈ 40 µg/mL) in test [4].
On to `CC[C@H](C)[C@H](NC(=O)[C@H](CCCCN)NC(=O)[C@H](CCCCN)NC(=O)[C@H](CC(C)C)NC(=O)[C@H](Cc1ccc(O)cc1)NC(=O)[C@H](CC(N)=O)NC(=O)[C@H](Cc1ccc(O)cc1)NC(=O)[C@@H](NC(=O)[C@@H](NC(=O)[C@H](CCCCN)NC(=O)[C@H](C)NC(=O)[C@H](Cc1ccc(O)cc1)NC(=O)[C@H](CCCCN)NC(=O)[C@H](C)NC(=O)CN)[C@@H](C)CC)[C@@H](C)CC)C(=O)N[C@@H](C)C(=O)N[C@@H](CC(N)=O)C(=O)N[C@@H](C)C(=O)N[C@@H](CC(C)C)C(=O)N[C@@H](Cc1c[nH]c2ccccc12)C(=O)O` [GAKYAKIIYNYLKKIANALW], for which the MIC in test [6] is 3.42 µM (≈ 8 µg/mL); in test [7], 6.83 µM (≈ 16 µg/mL); in the test on Vibrio parahaemolyticus it was 6.83 µM (≈ 16 µg/mL); in [8], 13.7 µM (≈ 32 µg/mL); against Lactococcus garvieae, not below 54.7 µM; in test [9], not below 54.7 µM. Also, the MIC in the test on Streptococcus iniae was 27.3 µM (≈ 64 µg/mL); in test [10] it was 27.3 µM (≈ 64 µg/mL); in [11], not below 54.7 µM; in test [12] it was 6.83 µM (≈ 16 µg/mL); in the test with Vibrio harveyi, 1.71 µM (≈ 4 µg/mL); in [13], 13.7 µM (≈ 32 µg/mL). Moreover, the MIC amounted to 13.7 µM (≈ 32 µg/mL) in test [14]; 6.83 µM (≈ 16 µg/mL) in test [15]; 6.83 µM (≈ 16 µg/mL) in [16]; 6.83 µM (≈ 16 µg/mL) in test [17]; 6.83 µM (≈ 16 µg/mL) in the test with Vibrio alginolyticus; 6.83 µM (≈ 16 µg/mL) in [18]. The minimum inhibitory concentration (MIC) in [19] stood at 27.3 µM (≈ 64 µg/mL).
For the molecule `CC(C)C[C@H](NC(=O)[C@H](CCCN=C(N)N)NC(=O)[C@@H]1CCCN1C(=O)[C@H](Cc1cnc[nH]1)NC(=O)[C@@H]1CCCN1C(=O)[C@@H]1CCCN1C(=O)[C@H](CCCN=C(N)N)NC(=O)[C@@H]1CCCN1C(=O)[C@@H]1CCCN1C(=O)[C@H](Cc1cnc[nH]1)NC(=O)[C@@H]1CCCN1C(=O)[C@@H]1CCCN1C(=O)[C@H](CCCN=C(N)N)NC(=O)[C@@H]1CCCN1C(=O)[C@@H]1CCCN1C(=O)[C@H](Cc1cnc[nH]1)NC(=O)[C@@H]1CCCN1C(=O)[C@@H]1CCCN1C(=O)[C@H](CCCN=C(N)N)NC(=O)[C@@H]1CCCN1C(=O)[C@@H]1CCCN1C(=O)[C@H](Cc1cnc[nH]1)NC(=O)[C@@H]1CCCN1C(=O)[C@@H]1CCCN1C(=O)[C@H](CCCN=C(N)N)NC(=O)[C@@H]1CCCN1)C(=O)O` [PRPPHPPRPPHPPRPPHPPRPPHPRL], the MIC was 0.5 µM (≈ 1.51 µg/mL) against Salmonella typhimurium; not below 64 µM in [5]; 2 µM (≈ 6.03 µg/mL) in the test with Proteus vulgaris; not below 32 µM against Bacillus subtilis; not below 64 µM in the test with Streptococcus pyogenes; 4 µM (≈ 12.1 µg/mL) with Pseudomonas aeruginosa. For the same molecule, the MIC against Escherichia coli amounted to 1 µM (≈ 3.01 µg/mL).
With `CC(C)C[C@H](NC(=O)[C@@H](N)CCCN=C(N)N)C(=O)N[C@@H](Cc1c[nH]c2ccccc12)C(=O)N[C@@H](CCCN=C(N)N)C(=O)N[C@@H](CCCN=C(N)N)C(=O)N[C@@H](Cc1c[nH]c2ccccc12)C(=O)N[C@@H](CCCN=C(N)N)C(=O)N[C@@H](CCCN=C(N)N)C(=O)N[C@@H](Cc1c[nH]c2ccccc12)C(=O)N[C@@H](CCCN=C(N)N)C(=O)N[C@@H](CCCN=C(N)N)C(N)=O` [RLWRRWRRWRR], the MIC in [20] was determined as 2 µM (≈ 3.56 µg/mL); in test [21], 8 µM (≈ 14.3 µg/mL); in test [22], 8 µM (≈ 14.3 µg/mL); in [23] it was 2 µM (≈ 3.56 µg/mL); in test [24], 16 µM (≈ 28.5 µg/mL); in test [25], 8 µM (≈ 14.3 µg/mL). Besides, the MIC is 16 µM (≈ 28.5 µg/mL) in test [26], 4 µM (≈ 7.13 µg/mL) in test [27], 4 µM (≈ 7.13 µg/mL) in test [28] and 4 µM (≈ 7.13 µg/mL) in [29].
As to `CC(C)C[C@H](NC(=O)[C@H](Cc1c[nH]c2ccccc12)NC(=O)[C@H](CCCCN)NC(=O)[C@H](CCCCN)NC(=O)[C@H](Cc1c[nH]c2ccccc12)NC(=O)[C@H](CC(C)C)NC(=O)[C@H](CCCCN)NC(=O)[C@H](Cc1c[nH]c2ccccc12)NC(=O)[C@H](CC(C)C)NC(=O)[C@@H](N)CCCCN)C(=O)N[C@@H](CCCCN)C(N)=O` [KLWKLWKKWLK], the MIC in [20] was 4 µM (≈ 6.22 µg/mL); in [21], 2 µM (≈ 3.11 µg/mL); in test [30], not below 100 µM; in test [22] it was 2 µM (≈ 3.11 µg/mL); in test [23] it was 2 µM (≈ 3.11 µg/mL); in test [24], 4 µM (≈ 6.22 µg/mL). The MIC in [25] turned out to be 4 µM (≈ 6.22 µg/mL); in test [26], 8 µM (≈ 12.4 µg/mL); in test [27], 2 µM (≈ 3.11 µg/mL); in test [28], 4 µM (≈ 6.22 µg/mL); in test [29], 1 µM (≈ 1.56 µg/mL).
